Key:
UACC-257 [1] = experiment: Growth inhibition of human UACC257 cells assessed as cell growth at 10 uM after 48 hrs by sulforhodamine B assay; type: functional; settings: UACC-257, 48 h, read-out: Activity
RPMI-8226 = experiment: Growth inhibition of human RPMI8226 cells assessed as cell growth at 10 uM after 48 hrs by sulforhodamine B assay; type: functional; settings: RPMI-8226, 48 h, read-out: Activity
ACHN [2] = experiment: Growth inhibition of human ACHN cells assessed as cell growth at 10 uM after 48 hrs by sulforhodamine B assay; type: functional; settings: read-out: Activity
NCI-H322M = experiment: Growth inhibition of human NCI-H322M cells assessed as cell growth at 10 uM after 48 hrs by sulforhodamine B assay; type: functional; settings: read-out: Activity
SW-620 [3] = experiment: Growth inhibition of human SW620 cells assessed as cell growth at 10 uM after 48 hrs by sulforhodamine B assay; type: functional; settings: SW-620, 48 h, read-out: Activity
[4] = Growth inhibition of human HCC2998 cells after 48 hrs by sulforhodamine B assay; type: functional; settings: HCC 2998, 48 h
SF-295 = experiment: Growth inhibition of human SF295 cells after 48 hrs by sulforhodamine B assay; type: functional, cell-based; settings: SF-295, 48 h
SF-539 [5] = experiment: Growth inhibition of human SF539 cells assessed as cell growth at 10 uM after 48 hrs by sulforhodamine B assay; type: functional; settings: SF-539, 48 h, read-out: Activity
KM12 = experiment: Growth inhibition of human KM12 cells assessed as cell growth at 10 uM after 48 hrs by sulforhodamine B assay; type: functional; settings: KM12, 48 h, read-out: Activity
DU-145 = experiment: Growth inhibition of human DU145 cells assessed as cell growth at 10 uM after 48 hrs by sulforhodamine B assay; type: functional; settings: DU-145, 48 h, read-out: Activity
MCF7 = experiment: Growth inhibition of human MCF7 cells assessed as cell growth at 10 uM after 48 hrs by sulforhodamine B assay; type: functional; settings: MCF7, 48 h, read-out: Activity
NCI-H522 = experiment: Growth inhibition of human NCI-H522 cells after 48 hrs by sulforhodamine B assay; type: functional; settings: NCI-H522, 48 h
UACC-257 [6] = experiment: Growth inhibition of human UACC257 cells after 48 hrs by sulforhodamine B assay; type: functional; settings: UACC-257, 48 h
MDA-MB-435 = experiment: Growth inhibition of human MDA-MB-435 cells assessed as cell growth at 10 uM after 48 hrs by sulforhodamine B assay; type: functional; settings: MDA-MB-435, 48 h, read-out: Activity
SW-620 [7] = experiment: Growth inhibition of human SW620 cells after 48 hrs by sulforhodamine B assay; type: functional; settings: SW-620, 48 h
BT-549 [8] = experiment: Growth inhibition of human BT549 cells after 48 hrs by sulforhodamine B assay; type: functional; settings: BT-549, 48 h
NCI-H226 = experiment: Growth inhibition of human NCI-H226 cells assessed as cell growth at 10 uM after 48 hrs by sulforhodamine B assay; type: functional; settings: NCI-H226, 48 h, read-out: Activity
HCT-116 = experiment: Growth inhibition of human HCT116 cells after 48 hrs by sulforhodamine B assay; type: functional; settings: HCT-116, 48 h
BT-549 [9] = experiment: Growth inhibition of human BT549 cells assessed as cell growth at 10 uM after 48 hrs by sulforhodamine B assay; type: functional; settings: BT-549, 48 h, read-out: Activity
RXF 393 = experiment: Growth inhibition of human RXF393 cells after 48 hrs by sulforhodamine B assay; type: functional; settings: RXF 393, 48 h
SN12C = experiment: Growth inhibition of human SN12C cells assessed as cell growth at 10 uM after 48 hrs by sulforhodamine B assay; type: functional; settings: read-out: Activity
A498 [10] = experiment: Growth inhibition of human A498 cells assessed as cell growth at 10 uM after 48 hrs by sulforhodamine B assay; type: functional; settings: A498, 48 h, read-out: Activity
UACC-62 [11] = experiment: Growth inhibition of human UACC62 cells after 48 hrs by sulforhodamine B assay; type: functional; settings: UACC-62, 48 h
COLO 205 = experiment: Growth inhibition of human COLO205 cells after 48 hrs by sulforhodamine B assay; type: functional; settings: COLO 205, 48 h
ACHN [12] = experiment: Growth inhibition of human ACHN cells after 48 hrs by sulforhodamine B assay; type: functional
SK-MEL-28 [13] = experiment: Growth inhibition of human SK-MEL-28 cells after 48 hrs by sulforhodamine B assay; type: functional; settings: SK-MEL-28, 48 h
CAKI-1 = experiment: Growth inhibition of human CAKI-1 cells assessed as cell growth at 10 uM after 48 hrs by sulforhodamine B assay; type: functional; settings: CAKI-1, 48 h, read-out: Activity
786-0 = experiment: Growth inhibition of human 786-0 cells assessed as cell growth at 10 uM after 48 hrs by sulforhodamine B assay; type: functional; settings: 786-0, 48 h, read-out: Activity
UACC-62 [14] = experiment: Growth inhibition of human UACC62 cells assessed as cell growth at 10 uM after 48 hrs by sulforhodamine B assay; type: functional; settings: UACC-62, 48 h, read-out: Activity
A498 [15] = experiment: Growth inhibition of human A498 cells after 48 hrs by sulforhodamine B assay; type: functional, cell-based; settings: A498, 48 h
SK-MEL-28 [16] = experiment: Growth inhibition of human SK-MEL-28 cells assessed as cell growth at 10 uM after 48 hrs by sulforhodamine B assay; type: functional; settings: SK-MEL-28, 48 h, read-out: Activity
MOLT-4 = experiment: Growth inhibition of human MOLT4 cells assessed as cell growth at 10 uM after 48 hrs by sulforhodamine B assay; type: functional; settings: MOLT-4, 48 h, read-out: Activity
IGROV-1 = experiment: Growth inhibition of human IGROV1 cells after 48 hrs by sulforhodamine B assay; type: functional; settings: IGROV-1, 48 h
SF-539 [17] = experiment: Growth inhibition of human SF539 cells after 48 hrs by sulforhodamine B assay; type: functional; settings: SF-539, 48 h
[18] = read-out: LC50 (the source's name)

Compound: COc1cc(-c2nn(-c3cccc(NC(=O)c4ccc(Cl)c(C(F)(F)F)c4)c3)cc2-c2ccncc2)ccc1Cl
- growth at 10 µM (UACC-257 [1]): 23.5%
- growth at 10 µM (RPMI-8226): 25.4%
- growth at 10 µM (ACHN [2]): 39.1%
- growth at 10 µM (NCI-H322M): 84.9%
- growth at 10 µM (SW-620 [3]): 36.1%
- GI50 [4]: 7.86 µM
- TGI [4]: > 32.5 µM
- CC50 [4, 18]: > 32.5 µM
- GI50 (SF-295): 1.38 µM
- IC50 (SF-295): 1.38 µM
- TGI (SF-295): 17.3 µM
- CC50 (SF-295; [18]): > 32.5 µM
- growth at 10 µM (SF-539 [5]): 33%
- growth at 10 µM (KM12): 28.8%
- growth at 10 µM (DU-145): 65.4%
- growth at 10 µM (MCF7): 37.6%
- GI50 (NCI-H522): 1.04 µM
- LC50 (concentration killing 50% of cells) (NCI-H522): > 32.5 µM
- TGI (NCI-H522): 13.4 µM
- GI50 (UACC-257 [6]): 7.13 µM
- TGI (UACC-257 [6]): > 32.5 µM
- CC50 (UACC-257 [6]; [18]): > 32.5 µM
- growth at 10 µM (MDA-MB-435): -26.8%
- GI50 (SW-620 [7]): 4.75 µM
- TGI (SW-620 [7]): > 32.5 µM
- CC50 (SW-620 [7]; [18]): > 32.5 µM
- GI50 (BT-549 [8]): 7.54 µM
- LC50 (50% lethal concentration) (BT-549 [8]): > 32.5 µM
- TGI (BT-549 [8]): > 32.5 µM
- growth at 10 µM (NCI-H226): 56.3%
- GI50 (HCT-116): 2.49 µM
- TGI (HCT-116): > 32.5 µM
- CC50 (HCT-116; [18]): > 32.5 µM
- growth at 10 µM (BT-549 [9]): 49.7%
- GI50 (RXF 393): 1.76 µM
- LC50 (concentration killing 50% of cells) (RXF 393): > 32.5 µM
- TGI (RXF 393): 18.7 µM
- growth at 10 µM (SN12C): 57.3%
- growth at 10 µM (A498 [10]): 11.8%
- GI50 (UACC-62 [11]): 2.1 µM
- LC50 (50% lethal concentration) (UACC-62 [11]): > 32.5 µM
- TGI (UACC-62 [11]): > 32.5 µM
- GI50 (COLO 205): 6.14 µM
- LC50 (concentration killing 50% of cells) (COLO 205): > 32.5 µM
- TGI (COLO 205): 23.3 µM
- GI50 (ACHN [12]): 2.73 µM
- TGI (ACHN [12]): > 32.5 µM
- CC50 (ACHN [12]; [18]): > 32.5 µM
- GI50 (SK-MEL-28 [13]): 3.08 µM
- LC50 (SK-MEL-28 [13]): > 32.5 µM
- TGI (SK-MEL-28 [13]): > 32.5 µM
- growth at 10 µM (CAKI-1): 61.1%
- growth at 10 µM (786-0): 59.5%
- growth at 10 µM (UACC-62 [14]): 32.8%
- GI50 (A498 [15]): 2.7 µM
- IC50 (A498 [15]): 2.7 µM
- TGI (A498 [15]): 22.7 µM
- CC50 (A498 [15]; [18]): > 32.5 µM
- growth at 10 µM (SK-MEL-28 [16]): 41.6%
- growth at 10 µM (MOLT-4): 20.3%
- GI50 (IGROV-1): 2.15 µM
- LC50 (concentration killing 50% of cells) (IGROV-1): > 32.5 µM
- TGI (IGROV-1): > 32.5 µM
- GI50 (SF-539 [17]): 4.13 µM
- LC50 (concentration killing 50% of cells) (SF-539 [17]): > 32.5 µM
- TGI (SF-539 [17]): 20.3 µM

Source: ChEMBL document CHEMBL2440076, “New triarylpyrazoles as broad-spectrum anticancer agents: design, synthesis, and biological evaluation” (Eur J Med Chem, 2013)
